Molecular target: NAMPT enzyme (Homo sapiens (Human), UniProt P43490)
Test: Enzyme Assay and NMN Detection (NAMPT reaction, fluorescence detection of NMN)
Type: biochemical
Conditions: Table B-1; NAMPT activation, NMN formation
Method in brief: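 Reaction in 50 mM HEPES pH 7.5, 5 mM MgCl2, 0.1% Prionex, 0.005% Tween 20, 1 mM TCEP at room temperature, with 16 nM NAMPT, 120 uM ATP, 5 uM nicotinamide, 6.25 uM PRPP, 0.04 U/ml pyrophosphatase for 2 h. Stopped with acetophenone/KOH then formic acid; NMN quantified by fluorescence (ex380/em460) against calibration curve.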

Chain of NAMPT enzyme (P43490 whole entry, species assumed): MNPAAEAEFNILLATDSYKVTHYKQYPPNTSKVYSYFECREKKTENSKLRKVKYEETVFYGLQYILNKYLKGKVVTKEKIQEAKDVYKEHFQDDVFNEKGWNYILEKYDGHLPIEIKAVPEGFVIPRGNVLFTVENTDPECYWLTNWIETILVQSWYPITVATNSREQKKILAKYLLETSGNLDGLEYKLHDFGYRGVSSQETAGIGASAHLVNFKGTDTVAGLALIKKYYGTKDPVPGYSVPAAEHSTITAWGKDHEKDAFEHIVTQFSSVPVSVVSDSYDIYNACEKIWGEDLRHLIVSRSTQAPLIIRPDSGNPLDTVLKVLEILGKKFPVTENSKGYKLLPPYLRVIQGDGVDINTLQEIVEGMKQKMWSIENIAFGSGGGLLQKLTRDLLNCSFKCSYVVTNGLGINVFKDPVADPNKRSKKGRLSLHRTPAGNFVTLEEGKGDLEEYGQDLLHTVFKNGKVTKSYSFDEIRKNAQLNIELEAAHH

| EC50 [nM] | SMILES |
| --- | --- |
| 100 to 2000 | O=C(NCc1cn[nH]c1)Nc1ccc(C(=O)Nc2cccc(Cl)c2)cc1 [N-(3-Chloro-phenyl)-4-[3-(1H-pyrazol-4-ylmethyl)-ureido]-benzamide] |
| 100 to 2000 | COc1cccc(CNS(=O)(=O)c2ccc(NC(=O)NCc3cn[nH]c3)cc2)c1 [N-(3-Methoxy-benzyl)-4-[3-(1H-pyrazol-4-ylmethyl)-ureido]-benzenesulfonamide] |
| < 100 | O=C(NCc1cn[nH]c1)Nc1ccc(NS(=O)(=O)Cc2ccccc2)cc1 [N-(4-(3-((1H-pyrazol-4-yl)methyl)ureido)phenyl)-1-phenylmethanesulfonamide] |
| 100 to 2000 | O=C(NCc1cn[nH]c1)Nc1ccc(S(=O)(=O)NCc2ccc(Cl)cc2)cc1 [N-(4-Chloro-benzyl)-4-[3-(1H-pyrazol-4-ylmethyl)-ureido]-benzenesulfonamide] |
| < 100 | COc1ccc(CNS(=O)(=O)c2ccc(NC(=O)NCc3cn[nH]c3)cc2)cc1 [N-(4-Methoxy-benzyl)-4-[3-(1H-pyrazol-4-ylmethyl)-ureido]-benzenesulfonamide] |

Same assay, conditions: Table B-2; NAMPT activation, NMN formation

| SMILES | EC50 [nM] |
| --- | --- |
| O=C(NCc1ccncc1)Nc1ccc(C(=O)NCc2ccccc2Cl)cc1 [N-(2-chlorobenzyl)-4-(3-(pyridin-4-ylmethyl)ureido)benzamide] | > 20000 |
| O=C(NCc1ccncc1)Nc1ccc(C(=O)NCc2ccccc2F)cc1 [N-(2-fluorobenzyl)-4-(3-(pyridin-4-ylmethyl)ureido)benzamide] | 2000 to 5000 |
| O=C(NCc1ccncc1)Nc1ccc(C(=O)NCCO)cc1 [N-(2-hydroxyethyl)-4-(3-(pyridin-4-ylmethyl)ureido)benzamide] | > 20000 |
| COc1ccccc1CNC(=O)c1ccc(NC(=O)NCc2ccncc2)cc1 [N-(2-methoxybenzyl)-4-(3-(pyridin-4-ylmethyl)ureido)benzamide] | > 20000 |
| COCCNC(=O)c1ccc(NC(=O)NCc2ccncc2)cc1 [N-(2-methoxyethyl)-4-(3-(pyridin-4-ylmethyl)ureido)benzamide] | 2000 to 5000 |
| O=C(NCc1ccncc1)Nc1ccc(C(=O)NCc2cccc(Cl)c2)cc1 [N-(3-chlorobenzyl)-4-(3-(pyridin-4-ylmethyl)ureido)benzamide] | > 20000 |
| O=C(NCc1ccncc1)Nc1ccc(C(=O)NCc2cccc(F)c2)cc1 [N-(3-fluorobenzyl)-4-(3-(pyridin-4-ylmethyl)ureido)benzamide] | > 20000 |
| COc1cccc(CNC(=O)c2ccc(NC(=O)NCc3ccncc3)cc2)c1 [N-(3-methoxybenzyl)-4-(3-(pyridin-4-ylmethyl)ureido)benzamide] | > 20000 |
| Cc1cccc(CNC(=O)c2ccc(NC(=O)NCc3ccncc3)cc2)c1 [N-(3-methylbenzyl)-4-(3-(pyridin-4-ylmethyl)ureido)benzamide] | > 20000 |
| Cc1cc(NC(=O)c2ccc(NC(=O)NCc3ccncc3)cc2)on1 [N-(3-methylisoxazol-5-yl)-4-(3-(pyridin-4-ylmethyl)ureido)benzamide] | 2000 to 5000 |
| Cc1nc(NS(=O)(=O)c2ccc(NC(=O)NCc3ccncc3)cc2)oc1C [N-(4,5-Dimethyl-oxazol-2-yl)-4-(3-pyridin-4-ylmethyl-ureido)-benzenesulfonamide] | > 20000 |
| COCc1ccc(NC(=O)c2ccc(NC(=O)NCc3ccncc3)cc2)cc1 [N-(4-(methoxymethyl)phenyl)-4-(3-(pyridin-4-ylmethyl)ureido)benzamide] | > 20000 |
| COCc1ccc(CNS(=O)(=O)c2ccc(NC(=O)NCc3ccncc3)cc2)cc1 [N-(4-Methoxymethyl-benzyl)-4-(3-pyridin-4-ylmethyl-ureido)-benzenesulfonamide] | 100 to 2000 |
| Cc1ccnc(NS(=O)(=O)c2ccc(NC(=O)NCc3ccncc3)cc2)n1 [N-(4-Methyl-pyrimidin-2-yl)-4-(3-pyridin-4-ylmethyl-ureido)-benzenesulfonamide] | 100 to 2000 |
| O=C(NCc1ccncc1)Nc1ccc(C(=O)NCc2ccc(Cl)cc2)cc1 [N-(4-chlorobenzyl)-4-(3-(pyridin-4-ylmethyl)ureido)benzamide] | > 20000 |

Second part, the molecule after the results:

| EC50 [nM] | SMILES |
| --- | --- |
| 100 to 2000 | O=C(NCc1ccncc1)Nc1ccc(C(=O)Nc2ccccc2Cl)cc1 [N-(2-chlorophenyl)-4-(3-(pyridin-4-ylmethyl)ureido)benzamide] |
| 100 to 2000 | O=C(NCc1ccncc1)Nc1ccc(S(=O)(=O)NCc2ccccc2F)cc1 [N-(2-fluorobenzyl)-4-(3-(pyridin-4-ylmethyl)ureido)benzenesulfonamide] |
| 100 to 2000 | O=C(NCc1ccncc1)Nc1ccc(C(=O)Nc2ccccc2F)cc1 [N-(2-fluorophenyl)-4-(3-(pyridin-4-ylmethyl)ureido)benzamide] |
| 100 to 2000 | COc1ccccc1CNS(=O)(=O)c1ccc(NC(=O)NCc2ccncc2)cc1 [N-(2-methoxybenzyl)-4-(3-(pyridin-4-ylmethyl)ureido)benzenesulfonamide] |
| 100 to 2000 | COc1ccccc1NC(=O)c1ccc(NC(=O)NCc2ccncc2)cc1 [N-(2-methoxyphenyl)-4-(3-(pyridin-4-ylmethyl)ureido)benzamide] |
| 100 to 2000 | Cc1ccccc1CNC(=O)c1ccc(NC(=O)NCc2ccncc2)cc1 [N-(2-methylbenzyl)-4-(3-(pyridin-4-ylmethyl)ureido)benzamide] |
| 100 to 2000 | O=C(NCc1ccncc1)Nc1ccc(C(=O)NCCN2CCOCC2)cc1 [N-(2-morpholinoethyl)-4-(3-(pyridin-4-ylmethyl)ureido)benzamide] |
| 100 to 2000 | COc1ccc(NC(=O)c2ccc(NC(=O)NCc3ccncc3)cc2)cc1OC [N-(3,4-dimethoxyphenyl)-4-(3-(pyridin-4-ylmethyl)ureido)benzamide] |
| 100 to 2000 | Cc1ccc(NC(=O)c2ccc(NC(=O)NCc3ccncc3)cc2)cc1C [N-(3,4-dimethylphenyl)-4-(3-(pyridin-4-ylmethyl)ureido)benzamide] |
| 100 to 2000 | CN(C)c1cccc(NC(=O)c2ccc(NC(=O)NCc3ccncc3)cc2)c1 [N-(3-(dimethylamino)phenyl)-4-(3-(pyridin-4-ylmethyl)ureido)benzamide] |
| 100 to 2000 | O=C(NCc1ccncc1)Nc1ccc(S(=O)(=O)NCc2cccc(Cl)c2)cc1 [N-(3-Chloro-benzyl)-4-(3-pyridin-4-ylmethyl-ureido)-benzenesulfonamide] |
| 100 to 2000 | N#Cc1cccc(CNS(=O)(=O)c2ccc(NC(=O)NCc3ccncc3)cc2)c1 [N-(3-Cyano-benzyl)-4-(3-pyridin-4-ylmethyl-ureido)-benzenesulfonamide] |
| 100 to 2000 | CN(C)c1cccc(CNS(=O)(=O)c2ccc(NC(=O)NCc3ccncc3)cc2)c1 [N-(3-Dimethylamino-benzyl)-4-(3-pyridin-4-ylmethyl-ureido)-benzenesulfonamide] |
| 100 to 2000 | COc1cccc(CNS(=O)(=O)c2ccc(NC(=O)NCc3ccncc3)cc2)c1 [N-(3-Methoxy-benzyl)-4-(3-pyridin-4-ylmethyl-ureido)-benzenesulfonamide] |
| 100 to 2000 | COc1cccc(NS(=O)(=O)c2ccc(NC(=O)NCc3ccncc3)cc2)c1 [N-(3-Methoxy-phenyl)-4-(3-pyridin-4-ylmethyl-ureido)-benzenesulfonamide] |
| 100 to 2000 | COCCCNS(=O)(=O)c1ccc(NC(=O)NCc2ccncc2)cc1 [N-(3-Methoxy-propyl)-4-(3-pyridin-4-ylmethyl-ureido)-benzenesulfonamide] |
| 100 to 2000 | Cc1cccc(CNS(=O)(=O)c2ccc(NC(=O)NCc3ccncc3)cc2)c1 [N-(3-Methyl-benzyl)-4-(3-pyridin-4-ylmethyl-ureido)-benzenesulfonamide] |
| 100 to 2000 | O=C(NCc1ccncc1)Nc1ccc(C(=O)Nc2cccc(Cl)c2)cc1 [N-(3-chlorophenyl)-4-(3-(pyridin-4-ylmethyl)ureido)benzamide] |
| 100 to 2000 | CCOCCCNC(=O)c1ccc(NC(=O)NCc2ccncc2)cc1 [N-(3-ethoxypropyl)-4-(3-(pyridin-4-ylmethyl)ureido)benzamide] |
| 100 to 2000 | O=C(NCc1ccncc1)Nc1ccc(S(=O)(=O)NCc2cccc(F)c2)cc1 [N-(3-fluorobenzyl)-4-(3-(pyridin-4-ylmethyl)ureido)benzenesulfonamide] |
| 100 to 2000 | O=C(NCc1ccncc1)Nc1ccc(C(=O)Nc2cccc(F)c2)cc1 [N-(3-fluorophenyl)-4-(3-(pyridin-4-ylmethyl)ureido)benzamide] |
| 100 to 2000 | COc1cccc(NC(=O)c2ccc(NC(=O)NCc3ccncc3)cc2)c1 [N-(3-methoxyphenyl)-4-(3-(pyridin-4-ylmethyl)ureido)benzamide] |
| < 100 | CN(C)Cc1ccc(CNS(=O)(=O)c2ccc(NC(=O)NCc3ccncc3)cc2)cc1 [N-(4-((dimethylamino)methyl)benzyl)-4-(3-(pyridin-4-ylmethyl)ureido)benzenesulfonamide] |
| 100 to 2000 | CN(C)c1ccc(NC(=O)c2ccc(NC(=O)NCc3ccncc3)cc2)cc1 [N-(4-(dimethylamino)phenyl)-4-(3-(pyridin-4-ylmethyl)ureido)benzamide] |
| 100 to 2000 | CN(C)c1ccc(CNS(=O)(=O)c2ccc(NC(=O)NCc3ccncc3)cc2)cc1 [N-(4-Dimethylamino-benzyl)-4-(3-pyridin-4-ylmethyl-ureido)-benzenesulfonamide] |
| 100 to 2000 | CS(=O)(=O)c1ccc(CNS(=O)(=O)c2ccc(NC(=O)NCc3ccncc3)cc2)cc1 [N-(4-Methanesulfonyl-benzyl)-4-(3-pyridin-4-ylmethyl-ureido)-benzenesulfonamide] |
| 100 to 2000 | COc1ccc(NS(=O)(=O)c2ccc(NC(=O)NCc3ccncc3)cc2)cc1 [N-(4-Methoxy-phenyl)-4-(3-pyridin-4-ylmethyl-ureido)-benzenesulfonamide] |

Same assay, conditions: Table B-4; NAMPT activation, NMN formation

| EC50 [nM] | SMILES |
| --- | --- |
| 100 to 2000 | O=C(NCc1cn[nH]c1)Nc1ccc(S(=O)(=O)NCc2cccc(F)c2)cc1 [N-(3-Fluoro-benzyl)-4-[3-(1H-pyrazol-4-ylmethyl)-ureido]-benzenesulfonamide] |
| 100 to 2000 | Cc1ccc(CNS(=O)(=O)c2ccc(NC(=O)NCc3cn[nH]c3)cc2)cc1 [N-(4-Methyl-benzyl)-4-[3-(1H-pyrazol-4-ylmethyl)-ureido]-benzenesulfonamide] |

Reference: patent US11452717B2, “Small molecule activators of nicotinamide phosphoribosyltransferase (NAMPT) and uses thereof” (Sanford Burnham Prebys Medical Discovery Institute, priority 2017, dated 2022)
